In US4981788A, “Novel acetylpolyamine amidohydrolase” (Kyowa Hakko Kogyo Co., Ltd., priority 1987, dated 1991):

Experiments:
[1] = system: E2: Enzyme derived from Arthrobacter sp. (acetylpolyamine amidohydrolase); settings: pH 7.0, cited from earlier work; for Relative activity, E2: activity against acetylputrescine defined as 100
[2] = target: T1, acetylpolyamine amidohydrolase (the present enzyme, product purified to homogeneity) (Mycoplana ramosa, UniProt Q48935); experiment: Enzyme activity on acetylpolyamine substrates, product purified to homogeneity (Method 2 / Method 3); type: biochemical, Mycoplana bullata; settings: for Vmax, Mycoplana bullata enzyme: pH 9.0; for Relative activity, Mycoplana bullata enzyme: phosphate buffer pH 9.0, substrate 0.833 mM, acetylputrescine = 100; for Optimum pH: 37° C., phosphate and borate buffers, per substrate
T1 construct: novel acetylpolyamine amidohydrolase of the present invention accumulated within the grown cells; made in house; host or cells: Mycoplana (natural producer)
T1 sequence (Q48935 1-341): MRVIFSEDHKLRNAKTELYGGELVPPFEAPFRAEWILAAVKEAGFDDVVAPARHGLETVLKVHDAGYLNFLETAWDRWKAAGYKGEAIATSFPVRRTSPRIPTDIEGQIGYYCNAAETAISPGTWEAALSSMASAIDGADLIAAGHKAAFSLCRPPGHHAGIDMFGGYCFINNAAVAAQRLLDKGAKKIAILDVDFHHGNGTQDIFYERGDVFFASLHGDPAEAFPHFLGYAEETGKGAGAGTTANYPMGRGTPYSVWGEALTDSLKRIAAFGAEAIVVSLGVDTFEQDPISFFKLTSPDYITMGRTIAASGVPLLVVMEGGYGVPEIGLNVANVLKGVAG
Description: [Method 2] (Assay when acetylputrescine, acetylcadaverine, N^1 -acetylspermidine and N^8 -acetylspermidine are used as substrate:)
The acetylpolyamine can be hydrolyzed by the acetylpolyamine amidohydrolase, as described in [Method 1], and the corresponding free polyamine thus formed is then oxidized by putrescine oxidase. Putrescine oxidase derived from Micrococcus rubens is known to have an activity upon putrescine, cadaverine and spermidine [Adachi, et al., Agric. Biol. Chem, 30, 1202 (1966)]. […] The actual analytical procedure is as described below.
The above reagents, (b) through (h), were put in a cuvette (d: 1.0 cm) and the mixture was preincubated at 37° C. for 2 minutes. The substrate solution (a) was then added, and the resulting mixture was incubated at 37° C. Absorbance at 500 nm was measured over a period of 3 to 5 minutes, and the change in absorbance per minute (ΔODsample) was determined from the linear portion of the plotted curve. For control, the same procedure as above was carried out, using distilled water as reference.
One unit of acetylpolyamine amidohydrolase is defined as its amount necessary to hydrolyze 1 μmole of acetylputrescine at 37° C. for one minute (or the amount necessary to form 0.5 μmole of quinoneimine pigment formed in the method for measuring the enzyme activity described above).
[Method 3] (Assay when acetylspermine is used as substrate:)
Acetylspermine is hydrolyzed by the action of acetylpolyamine amidohydrolase into free form of spermine. The free form of spermine can be oxidized by a polyamine oxidase derived from Aspergillus terreus to produce hydrogen peroxide. Two molar equivalents of hydrogen peroxide is formed from one molar equivalent of spermine. Thus, the enzyme activity can be measured by quantitative determination of the hydrogen peroxide according to the method described above. However, since the above polyamine oxidase also acts upon acetylspermine, it is impossible to exactly measure the activity of acetylpolyamine amidohydrolase by the standard assay. […] The actual procedure is described below.
Reagents (b) through (d) given in item (1) were put in a test tube and the mixture was preincubated at 37° C. for 2 minutes. The substrate solution (a) was then added, the resulting mixture was incubated at 37° C. for 10 minutes, and the reaction was stopped by addition of the termination (e). A sample solution (100 μl) was taken from the reaction mixture and subjected to HPLC as described above to separate free form of spermine from acetylspermine. Generally, acetylspermine is eluted at a position of 38 minutes after the start of elution and free form of spermine at a position of 41 minutes after the start of elution. A sample solution (200 μl), taken from the eluate containing free form of spermine, was mixed in a cuvette with reagents (a) through (e) given in item (2) above, the mixture was incubated at 37° C. for 10 minutes, and the absorbance at 755 nm was measured. For control, the same procedure as above was carried out using 200 μl of Elunt A in place of the sample solution, as reference.
The concentration of free form of spermine in the reaction mixture can be determined from a calibration curve previously prepared on the basis of aqueous soluitons of free form of spermine with different concentrations. If the concentration of free form of spermine contained in 150 μl of the reaction mixture is taken as P (mM), then the potency (A) for 1 ml of the enzyme solution can be expressed by the following equation: […]
The activities upon acetylputrescine, acetylcadaverine, N^1 -acetylspermidine and N^8 -acetylspermidine were measured by [Method 2] in a phosphate buffer (pH 9.0) at a substrate concentration of 0.833 mM, and the activity upon acetyl-spermine was measured by [Method 3] under the same conditions. […] Km values, determined from the Lineweaver-Burk plot, are also listed in the same table. […]

[3] = target: T2, acetylpolyamine amidohydrolase (the present enzyme, partially purified product) (Mycoplana ramosa, UniProt Q48935); experiment: Enzyme activity on acetylpolyamine substrates, partially purified product (substrate specificity, optimum pH/temperature, Km); type: biochemical, Mycoplana bullata; settings: for Optimum pH: pH 6 to 10, bis-Tris propane buffer, per substrate; for Relative activity, the present enzyme: pH 7.0, activity against acetylputrescine defined as 100
T2 construct: novel acetylpolyamine amidohydrolase of the present invention accumulated within the grown cells; made in house; host or cells: Mycoplana (natural producer; cells grown in culture)
T2 sequence (Q48935 1-341): T1 sequence (Q48935 1-341)
Method: Activity of the present enzyme (partially purified products) is measured according to the following procedure. That is, 0.1 ml of an enzyme solution is added to a reagent solution consisting of 1.5 ml of 0.1 M phosphate buffer (pH 7.0), 0.05 ml of 50 mM acetylpolyamine, 0.4 U of putrescine oxidase (when acetylputrescine, acetylcadaverine or acetylspermidine is used as substrate) or polyamine oxidase (when acetylspermidine or acetylspermine is used as substrate), 0.5 ml of 2.4 mM 4-aminoantipyrine, 0.5 ml of 42 mM phenol and 20 U of peroxidase. The mixture is incubated at 37° C., and the absorbance of quinoneimine pigment formed at 500 nm is measured.
In terms of the enzyme activity, the amount of enzyme that can hydrolyze 1 μmole of a substrate in one minute is defined as one unit (1 U).
The relative activities of acetylpolyamine amidohydrolases against various type of acetylpolyamine, defining the activities against acetylputrescine as 100 under a condition of pH 7.0, are as shown in Table 1 below.
Enzyme activity was measured at different pH levels ranging from 6 to 10 by using bis-Tris propane buffer solutions. The optimum pH was 9 for acetylputrescine and acetylcadaverine, and 8 for N^1 -acetylspermidine, N^8 -acetylspermidine and acetylspermine, as shown in FIG. 1.
The optimum working temperature for the present enzyme was about 50° C., when the relative activity was determined, using acetylputrescine as substrate, as shown in FIG. 4. The optimum temperatures for the other acetylpolyamine amidohydrolases were 30° to 40° C. This clearly distinguishes the present enzyme from the known enzymes.
Km values of the present enzyme and the other known enzymes for various types of acetylpolyamine at pH 7.0 were determined from the Line weaver-Burk plot [refer to J. Am. Chem. Soc., 56, 658 (1934)].

[4] = system: E3: Enzyme derived from Micrococcus luteus (acetylpolyamine amidohydrolase); settings: pH 7.0, cited from earlier work; for Relative activity, E3: activity against acetylputrescine defined as 100
[5] = system: E1: Enzyme derived from Streptomyces avellaneus (acetylpolyamine amidohydrolase); settings: cited from earlier work

Structure (SMILES)	Relative activity, E2 [1] [%]	Km [1] [µM]	Substrate concentration at which substrate inhibition was observed [2] [mM]	Vmax, Mycoplana bullata enzyme [2] [u/mg]	Relative activity, Mycoplana bullata enzyme [2] [%]	Optimum pH [3]	Relative activity, the present enzyme [3] [%]	Relative activity, E3 [4] [%]	Optimum pH [2]	Km [4] [µM]	Km ([2]; pH 9.0, Lineweaver-Burk plot, read-out: Km, Mycoplana bullata enzyme) [µM]	Km ([3]; pH 7.0, Lineweaver-Burk plot) [µM]	Relative activity, E1 ([5]; pH 7.0, activity against acetylputrescine defined as 100) [%]	Relative activity, St. avellaneus enzyme ([5]; reported reference data in Table 5, acetylputrescine = 100) [%]
CC(=O)NCCCCCN [Acetylcadaverine]	45	1600	≥ 1	18.8	72	9	71	12.5	–	–	–	–	–	–
CC(=O)NCCCCNCCCN [N^8 -Acetylspermidine]	–	–	≥ 1	19.8	60	8	51	85.1	9	380	–	–	–	–
CC(=O)NCCCNCCCCNCCCN [Acetylspermine]	3	–	> 1.6	7.7	37	8	24	2.1	10	–	290	160	0.4	0.4
CC(=O)NCCCNCCCCN [N^1 -Acetylspermidine]	–	–	≥ 1	20.5	61	8	108	3.5	9	–	–	–	–	–
